# Assay results reported in ChEMBL document CHEMBL3797034, “Design, synthesis and evaluation of novel tacrine-multialkoxybenzene hybrids as multi-targeted compounds against Alzheimer's disease” (Eur J Med Chem, 2016).
# Calls of active or inactive are those of the source. The calls are words filed in the database; no cut-off is given here.
# Tests used:
# [1] = target: Amyloid-beta precursor protein (Homo sapiens, UniProt P05067)
# Description: Inhibition of self-mediated amyloid beta (1 to 42) (unknown origin) aggregation after 24 hrs by thioflavin T fluorescence assay
# Acetylcholinesterase = Acetylcholinesterase (Electrophorus electricus, UniProt O42275)
# Acetylcholinesterase, sequence (O42275 whole entry): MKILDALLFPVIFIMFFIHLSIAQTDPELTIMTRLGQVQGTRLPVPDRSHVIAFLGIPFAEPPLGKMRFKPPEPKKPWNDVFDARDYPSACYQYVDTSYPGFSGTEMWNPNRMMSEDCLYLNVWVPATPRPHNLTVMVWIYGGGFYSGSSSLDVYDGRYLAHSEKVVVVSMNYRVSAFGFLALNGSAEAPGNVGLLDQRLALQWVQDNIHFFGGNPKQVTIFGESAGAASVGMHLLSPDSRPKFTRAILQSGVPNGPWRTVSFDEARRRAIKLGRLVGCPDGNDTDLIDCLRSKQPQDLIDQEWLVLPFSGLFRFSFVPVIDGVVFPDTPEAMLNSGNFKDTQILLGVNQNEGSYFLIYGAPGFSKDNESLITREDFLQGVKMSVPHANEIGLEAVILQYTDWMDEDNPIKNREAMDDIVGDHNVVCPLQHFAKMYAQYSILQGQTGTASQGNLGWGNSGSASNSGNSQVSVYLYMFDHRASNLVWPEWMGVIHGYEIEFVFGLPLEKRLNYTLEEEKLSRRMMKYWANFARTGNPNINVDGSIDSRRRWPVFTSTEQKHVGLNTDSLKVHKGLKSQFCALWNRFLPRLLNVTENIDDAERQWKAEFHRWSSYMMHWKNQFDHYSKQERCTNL
# Description: Inhibition of electric eel AChE using acetylthiocholine chloride as substrate preincubated for 20 mins followed by substrate addition by Ellman's method
# Cholinesterase = Cholinesterase (Equus caballus, UniProt P81908)
# Cholinesterase, sequence (P81908 whole entry): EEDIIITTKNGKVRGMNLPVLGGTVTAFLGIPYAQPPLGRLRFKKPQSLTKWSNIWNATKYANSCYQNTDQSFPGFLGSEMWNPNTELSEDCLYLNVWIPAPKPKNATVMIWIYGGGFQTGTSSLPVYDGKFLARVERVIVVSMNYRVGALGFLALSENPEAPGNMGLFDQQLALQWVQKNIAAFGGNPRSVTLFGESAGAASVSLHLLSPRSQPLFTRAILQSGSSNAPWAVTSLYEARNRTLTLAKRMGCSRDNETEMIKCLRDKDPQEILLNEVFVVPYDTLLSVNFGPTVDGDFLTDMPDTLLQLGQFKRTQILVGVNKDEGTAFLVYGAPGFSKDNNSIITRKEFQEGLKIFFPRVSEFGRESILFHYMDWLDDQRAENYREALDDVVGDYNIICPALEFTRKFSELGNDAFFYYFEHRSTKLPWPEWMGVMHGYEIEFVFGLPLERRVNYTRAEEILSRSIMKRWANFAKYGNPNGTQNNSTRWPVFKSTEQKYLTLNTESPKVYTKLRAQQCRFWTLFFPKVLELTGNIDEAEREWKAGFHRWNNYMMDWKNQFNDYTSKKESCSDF
# Description: Inhibition of equine serum BuChE using butylthiocholine chloride as substrate preincubated for 20 mins followed by substrate addition by Ellman's method
# [2] = target: Acetylcholinesterase (Electrophorus electricus) (UniProt O42275); experiment: Reversible inhibition of electric eel AChE using acetylthiocholine chloride as substrate preincubated for 20 mins followed by substrate addition by Lineweaver-burk plot analysis
# Acetylcholinesterase (Electrophorus electricus), sequence (O42275 24-633 limits assumed): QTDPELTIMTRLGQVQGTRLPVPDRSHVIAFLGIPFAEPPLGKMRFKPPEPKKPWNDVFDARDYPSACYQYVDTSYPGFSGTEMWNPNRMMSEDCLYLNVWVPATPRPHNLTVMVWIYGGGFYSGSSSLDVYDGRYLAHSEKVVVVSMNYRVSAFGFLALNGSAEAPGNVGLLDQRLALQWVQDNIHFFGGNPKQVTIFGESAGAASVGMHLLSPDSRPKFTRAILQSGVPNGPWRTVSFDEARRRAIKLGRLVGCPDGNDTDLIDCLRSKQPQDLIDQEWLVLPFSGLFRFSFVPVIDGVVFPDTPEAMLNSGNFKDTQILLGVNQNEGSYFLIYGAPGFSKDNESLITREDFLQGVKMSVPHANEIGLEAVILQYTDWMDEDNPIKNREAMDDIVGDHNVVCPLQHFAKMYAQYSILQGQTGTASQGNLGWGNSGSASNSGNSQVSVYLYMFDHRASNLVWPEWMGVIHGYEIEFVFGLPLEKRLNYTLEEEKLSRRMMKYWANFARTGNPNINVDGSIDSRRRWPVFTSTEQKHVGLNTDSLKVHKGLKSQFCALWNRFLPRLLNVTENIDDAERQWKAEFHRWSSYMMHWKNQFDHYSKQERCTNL
# [3] = target: Acetylcholinesterase (Electrophorus electricus) (UniProt O42275); experiment: Mixed inhibition of electric eel AChE using acetylthiocholine chloride as substrate preincubated for 20 mins followed by substrate addition by Lineweaver-burk plot analysis
# Amyloid-beta precursor protein, sequence (P05067 whole entry): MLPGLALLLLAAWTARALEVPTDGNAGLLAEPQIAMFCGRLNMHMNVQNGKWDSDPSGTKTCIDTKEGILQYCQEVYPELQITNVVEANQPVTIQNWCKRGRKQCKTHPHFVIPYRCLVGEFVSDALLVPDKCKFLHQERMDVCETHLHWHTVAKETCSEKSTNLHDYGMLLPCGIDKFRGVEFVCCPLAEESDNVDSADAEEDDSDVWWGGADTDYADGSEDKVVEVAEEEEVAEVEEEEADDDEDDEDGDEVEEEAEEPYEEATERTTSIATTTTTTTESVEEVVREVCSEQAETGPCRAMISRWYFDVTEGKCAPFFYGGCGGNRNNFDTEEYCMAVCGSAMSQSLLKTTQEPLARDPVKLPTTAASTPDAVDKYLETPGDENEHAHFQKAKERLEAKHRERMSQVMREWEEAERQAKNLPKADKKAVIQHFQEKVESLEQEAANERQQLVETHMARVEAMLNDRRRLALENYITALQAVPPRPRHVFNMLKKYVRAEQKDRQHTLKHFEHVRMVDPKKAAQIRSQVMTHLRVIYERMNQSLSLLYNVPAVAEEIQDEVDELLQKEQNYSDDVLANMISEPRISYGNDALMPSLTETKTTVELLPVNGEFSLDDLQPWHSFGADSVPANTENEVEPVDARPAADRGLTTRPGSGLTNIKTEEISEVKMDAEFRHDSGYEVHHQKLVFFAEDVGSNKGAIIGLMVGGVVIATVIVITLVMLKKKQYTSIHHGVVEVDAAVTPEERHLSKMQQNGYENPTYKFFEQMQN
structure (smiles),measurement,setting,value
COc1ccc(/C=C/C(=O)OCC(=O)Nc2c3c(nc4ccccc24)CCCC3)cc1OC,IC50,[1],49.1 nM
same,IC50,Acetylcholinesterase,16.2 nM
same,IC50,Cholinesterase,159 nM
COc1ccc(CC(=O)OCC(=O)Nc2c3c(nc4ccccc24)CCCC3)cc1OC,IC50,[1],22.5 nM
same,IC50,Acetylcholinesterase,65.1 nM
same,IC50,Cholinesterase,554 nM
COc1ccc(/C=C/C(=O)OCC(=O)Nc2c3c(nc4ccccc24)CCCC3)cc1O,IC50,[1],46.1 nM
same,IC50,Acetylcholinesterase,74.9 nM
same,IC50,Cholinesterase,355 nM
COc1cc(OC)cc(C(=O)OCC(=O)Nc2c3c(nc4ccccc24)CCCC3)c1,IC50,[1],55.9 nM
same,IC50,Acetylcholinesterase,15.7 nM
same,IC50,Cholinesterase,224 nM
O=C(COC(=O)/C=C/c1ccc(Cl)cc1)Nc1c2c(nc3ccccc13)CCCC2,IC50,[1],51.8 nM
same,IC50,Acetylcholinesterase,213 nM
same,IC50,Cholinesterase,542 nM
O=C(COC(=O)Cc1ccc(Cl)cc1)Nc1c2c(nc3ccccc13)CCCC2,IC50,[1],77.5 nM
same,IC50,Acetylcholinesterase,183 nM
same,IC50,Cholinesterase,218 nM
COc1ccc(C(=O)OCC(=O)Nc2c3c(nc4ccccc24)CCCC3)c(OC)c1OC,IC50,[1],65.5 nM
same,IC50,Acetylcholinesterase,15.5 nM
same,IC50,Cholinesterase,255 nM
COc1cc(C(=O)OCC(=O)Nc2c3c(nc4ccccc24)CCCC3)ccc1O,IC50,[1],37.4 nM
same,IC50,Acetylcholinesterase,70.1 nM
same,IC50,Cholinesterase,319 nM
COc1cc(/C=C/C(=O)OCC(=O)Nc2c3c(nc4ccccc24)CCCC3)cc(OC)c1OC,IC50,[1],45.9 nM
same,IC50,Acetylcholinesterase,16.9 nM
same,IC50,Cholinesterase,299 nM
O=C(COC(=O)Cc1ccc(O)cc1)Nc1c2c(nc3ccccc13)CCCC2,IC50,[1],45.3 nM
same,IC50,Acetylcholinesterase,74 nM
same,IC50,Cholinesterase,239 nM
COc1ccc(CC(=O)OCC(=O)Nc2c3c(nc4ccccc24)CCCC3)c(OC)c1OC,inhibition,[2],Active
same,inhibition,[3],Active
same,IC50,[1],51.8 nM
same,IC50,Acetylcholinesterase,5.63 nM
same,IC50,Cholinesterase,364 nM
O=C(COC(=O)c1ccc(O)c(O)c1)Nc1c2c(nc3ccccc13)CCCC2,IC50,[1],17.4 nM
same,IC50,Acetylcholinesterase,133 nM
same,IC50,Cholinesterase,344 nM
COc1cc(C(=O)OCC(=O)Nc2c3c(nc4ccccc24)CCCC3)cc(OC)c1OC,IC50,[1],30.7 nM
same,IC50,Acetylcholinesterase,8.46 nM
same,IC50,Cholinesterase,329 nM
COc1ccc(CC(=O)OCC(=O)Nc2c3c(nc4ccccc24)CCCC3)cc1,IC50,[1],71.3 nM
same,IC50,Acetylcholinesterase,25.3 nM
same,IC50,Cholinesterase,319 nM
O=C(COC(=O)Cc1c[nH]c2ccccc12)Nc1c2c(nc3ccccc13)CCCC2,IC50,[1],39 nM
same,IC50,Acetylcholinesterase,8.13 nM
same,IC50,Cholinesterase,292 nM
